We go through 33 molecules from patent US10035799B2, “COMT inhibiting methods and compositions” (Lieber Institute for Brain Development, priority 2015, dated 2018).

This assay deals with T1, catechol-O-methyltransferase (COMT) (Homo sapiens, UniProt P21964).
T1 construct: M51A variant) was expressed in HEK 293F cells
T1 sequence (P21964 52-271 limits assumed): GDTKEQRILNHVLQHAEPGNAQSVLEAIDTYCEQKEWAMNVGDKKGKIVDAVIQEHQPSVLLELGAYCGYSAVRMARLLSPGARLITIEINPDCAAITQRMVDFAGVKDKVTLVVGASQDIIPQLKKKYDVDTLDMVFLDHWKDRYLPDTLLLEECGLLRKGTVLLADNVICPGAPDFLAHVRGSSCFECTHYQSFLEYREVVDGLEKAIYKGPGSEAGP
As to the kind of experiment: COMT inhibition assay (HTRF, production of S-adenosyl homocysteine). The class given is biochemical. Particulars: recombinant human COMT, HTRF SAH production; MB-COMT or S-COMT not stated for Table 1. As to the method: The ability of compounds to inhibit the activity of catechol-O-methyltransferase (COMT) was determined by a homogenous time-resolved fluorescent (HTRF) assay (Lina et al, 2012; kit from CisBio, Codolet, France). This assay measures the production of S-adenosyl homocysteine (SAH) from the methyl donor S-adenosyl methionine. Recombinant human membrane bound COMT (MB-COMT; M51A variant) was expressed in HEK 293F cells using 293Fectin (Life Technologies, Gent, Belgium) and membranes prepared. The membranes were re-suspended in buffer (20 mM Tris/HCl pH 7; 10 mM glycerol; 2 mM MgCl2; 10 mM NaCl), aliquoted and stored at −80° C. Recombinant human soluble COMT(S-COMT), Va1158 variant and a hexa-His tag on the N-terminus, was purified using Ni-NTA chromatography, the His tag removed and stored in buffer as above.
For the human MB-COMT assay, membranes (62 ng/well) were incubated with SAM (20 μM final, CisBio) and dopamine (1.5 μM final; Sigma H8502, Diegem, Belgium) in the presence or absence of varying concentrations (typically 10 concentrations ranging from 10 μM to 0.1 nM) of compound for 40 min at 37° C. in 384-well microtitre plates (10 μl per well final volume). The reaction was terminated by the addition of acylation buffer and the amount of SAH produced determined according to manufacturer's instructions. Specific inhibition as that inhibited by a high concentration of tolcapone (10 μM; synthesised at UCB) and all experiments were validated using a control curve to tolcapone.
The human S-COMT assay was performed as above except that 0.15 ng enzyme/well was incubated with SAM (20 μM final) and dopamine (100 μM final) for 15 min at 37° C. and SAH production determined.
HTRF readings were performed using a Perkin Elmer Envision and results expressed as concentration of SAH produced using a standard curve. Results were analysed using non-linear regression to the 4-parameter logistic equation and pIC50 (−log 10 concentration of drug which inhibits enzyme activity/SAH production by 50%) determined.
A general note: TR-FRET usually uses a lanthanide donor and a delayed reading to cut background.

Take `O=S(=O)(c1cc(Br)c(O)c2ncccc12)N1CCN(Cc2ccc(F)cc2)CC1` [Example 121, 7-bromo-5-[4-[(4-fluorophenyl)methyl]piperazin-1-yl]sulfonyl-quinolin-8-ol]: the “Activity range (pIC50, COMT inhibition)” value is “+ (a pIC50 of from about 4.5 to 6)”.
As for `O=S(=O)(c1ccc(O)c2ncccc12)N1CCCC1Cc1ccccc1` (stereo not drawn) [Example 75, 5-(2-benzylpyrrolidin-1-yl)sulfonylquinolin-8-ol], the “Activity range (pIC50, COMT inhibition)” value is reported as “+++ (a pIC50 of above about 7)”.
The result for `O=S(=O)(c1cccc(-c2cccc3ncccc23)c1)c1ccc(O)c2ncccc12` [Example 25, 5-[3-(5-quinolyl)phenyl]sulfonylquinolin-8-ol] reads “+++ (a pIC50 of above about 7)”.
As to `O=S(=O)(c1ccccc1)c1ccc(O)c2ncccc12` [Example 22, 5-(benzenesulfonyl)quinolin-8-ol], the “Activity range (pIC50, COMT inhibition)” value was “+++ (a pIC50 of above about 7)”.
Then `COc1ccc(C2CCCN2S(=O)(=O)c2ccc(O)c3ncccc23)cc1` (stereo not drawn) [Example 77, 5-[2-(4-methoxyphenyl)pyrrolidin-1-yl]sulfonylquinolin-8-ol], with “+++ (a pIC50 of above about 7)”; and `O=S(=O)(c1ccc(O)c2ncccc12)N1Cc2ccccc2C1` [Example 47, 5-isoindolin-2-ylsulfonylquinolin-8-ol], with “+++ (a pIC50 of above about 7)”.
The result for `CN(Cc1ccccc1)S(=O)(=O)c1ccc(O)c2ncccc12` [Example 45, N-benzyl-8-hydroxy-N-methylquinoline-5-sulfonamide] reads “+++ (a pIC50 of above about 7)”.
For `O=S(=O)(c1ccc(O)c2ncccc12)N1CCC(Cc2ccccc2)CC1` [Example 84, 5-[(4-benzyl-1-piperidyl)sulfonyl]quinolin-8-ol], the “Activity range (pIC50, COMT inhibition)” value was “+++ (a pIC50 of above about 7)”.
Regarding `O=S(=O)(c1ccc(O)c2ncccc12)N1CCC(c2ccc(F)cc2)C1` (stereo not drawn) [Example 62, 5-(3-(4-fluorophenyl)pyrrolidin-1-yl)sulfonylquinolin-8-ol], the “Activity range (pIC50, COMT inhibition)” value is listed as “+++ (a pIC50 of above about 7)”.
For the molecule `O=S(=O)(c1ccccc1C(F)(F)F)c1ccc(O)c2ncccc12` [Example 21, 5-[2-(trifluoromethyl)phenyl]sulfonylquinolin-8-ol], the “Activity range (pIC50, COMT inhibition)” value was “+++ (a pIC50 of above about 7)”.
In the case of `O=S(=O)(c1ccc(O)c2ncccc12)N1CCCC1c1ccccc1C(F)(F)F` (stereo not drawn) [Example 81, 5-[2-[2-(trifluoromethyl)phenyl]pyrrolidin-1-yl]sulfonylquinolin-8-ol], the “Activity range (pIC50, COMT inhibition)” value is given as “++ (a pIC50 of from about great than 6 to 7)”.
For the molecule `O=S(=O)(c1ccc(O)c2ncccc12)N1CCN(c2ccc(F)cc2)CC1` [Example 96, 5-[4-(4-fluorophenyl)piperazin-1-yl]sulfonylquinolin-8-ol], the “Activity range (pIC50, COMT inhibition)” value was “++ (a pIC50 of from about great than 6 to 7)”.
Then `C[C@H](c1ccccc1)N(C)S(=O)(=O)c1cc(F)c(O)c2ncccc12` [Example 123, 7-fluoro-8-hydroxy-N-methyl-N-[(1R)-1-phenylethyl]quinoline-5-sulfonamide], with “+++ (a pIC50 of above about 7)”; and `C[C@@H](c1ccccc1)N(C)S(=O)(=O)c1ccc(O)c2ncccc12` [Example 51, 8-hydroxy-N-methyl-N-[(1S)-1-phenylethyl]quinoline-5-sulfonamide], with “+++ (a pIC50 of above about 7)”.
The result for `O=S(=O)(c1ccc(Cl)cc1)c1ccc(O)c2ncccc12` [Example 9, 5-(4-chlorophenyl)sulfonylquinolin-8-ol] reads “+++ (a pIC50 of above about 7)”; that for `CC(C)(C)c1ccc(S(=O)(=O)c2ccc(O)c3ncccc23)cc1` [Example 5, 5-(4-tert-butylphenyl)sulfonylquinolin-8-ol], “+++ (a pIC50 of above about 7)”; that for `C[C@H]1CCCN1S(=O)(=O)c1cc(Cl)c(O)c2ncccc12` [Example 118, 7-chloro-5-[(2S)-2-methylpyrrolidin-1-yl]sulfonyl-quinolin-8-ol], “++ (a pIC50 of from about great than 6 to 7)”.
`O=S(=O)(c1ccc(O)c2ncccc12)N1CCN(c2ccc(Cl)cn2)CC1` [Example 69, 5-[4-(5-chloro-2-pyridyl)piperazin-1-yl]sulfonylquinolin-8-ol]: the “Activity range (pIC50, COMT inhibition)” value was “++ (a pIC50 of from about great than 6 to 7)”.
Then `O=S(=O)(c1ccc(O)c2ncccc12)C1CCCCC1` [Example 30, 5-cyclohexylsulfonylquinolin-8-ol], with “+++ (a pIC50 of above about 7)”.
The result for `O=S(=O)(c1ccc(O)c2ncccc12)N1CCN(c2ccc(C(F)(F)F)cc2)CC1` [Example 94, 5-[4-[4-(trifluoromethyl)phenyl]piperazin-1-yl]sulfonylquinolin-8-ol] reads “++ (a pIC50 of from about great than 6 to 7)”; that for `Cc1cc(F)ccc1S(=O)(=O)c1ccc(O)c2ncccc12` [Example 20, 5-(4-fluoro-2-methyl-phenyl)sulfonylquinolin-8-ol], “+++ (a pIC50 of above about 7)”; that for `O=S(=O)(c1ccc(O)c2ncccc12)N1CCN(c2nsc3ccccc23)CC1` [Example 98, 5-[4-(1,2-benzothiazol-3-yl)piperazin-1-yl]sulfonylquinolin-8-ol], “++ (a pIC50 of from about great than 6 to 7)”.
The result for `O=S(=O)(c1ccccn1)c1ccc(O)c2ncccc12` [Example 16, 5-(2-pyridylsulfonyl)quinolin-8-ol] reads “+++ (a pIC50 of above about 7)”; that for `O=S(=O)(c1ccc(O)c2ncccc12)C1CCN(Cc2cccc(Cl)c2Cl)CC1` [Example 38, 5-[[1-[(2,3-dichlorophenyl)methyl]-4-piperidyl]sulfonyl]quinolin-8-ol], “++ (a pIC50 of from about great than 6 to 7)”.
Consider `Cc1ccccc1C1CCCN1S(=O)(=O)c1ccc(O)c2ncccc12` (stereo not drawn) [Example 71, 5-[2-(o-tolyl)pyrrolidin-1-yl]sulfonylquinolin-8-ol], for which the “Activity range (pIC50, COMT inhibition)” value is listed as “+++ (a pIC50 of above about 7)”.
The result for `O=S(=O)(c1ccc(O)c2ncccc12)N1CCCC1c1cccnc1` (stereo not drawn) [Example 72, 5-[2-(3-pyridyl)pyrrolidin-1-yl]sulfonylquinolin-8-ol] reads “++ (a pIC50 of from about great than 6 to 7)”; that for `O=S(=O)(c1cccc(-c2ccccc2)c1)c1ccc(O)c2ncccc12` [Example 6, 5-(3-phenylphenyl)sulfonylquinolin-8-ol], “+++ (a pIC50 of above about 7)”.
As for `O=S(=O)(c1cccc(C(F)(F)F)c1)c1ccc(O)c2ncccc12` [Example 13, 5-[3-(trifluoromethyl)phenyl]sulfonylquinolin-8-ol], the “Activity range (pIC50, COMT inhibition)” value is “+++ (a pIC50 of above about 7)”.
Then `CN(Cc1cccnc1)S(=O)(=O)c1ccc(O)c2ncccc12` [Example 54, 8-hydroxy-N-methyl-N-(3-pyridylmethyl)quinoline-5-sulfonamide], with “+++ (a pIC50 of above about 7)”.
Then `CN(Cc1ccc2ccccc2c1)S(=O)(=O)c1ccc(O)c2ncccc12` [Example 55, 8-hydroxy-N-methyl-N-(2-naphthylmethyl)quinoline-5-sulfonamide], with “++ (a pIC50 of from about great than 6 to 7)”; and `C[C@H](c1ccccc1)N(C)S(=O)(=O)c1cc(Br)c(O)c2ncccc12` [Example 120, 7-bromo-8-hydroxy-N-methyl-N-[(1R)-1-phenylethyl]quinoline-5-sulfonamide], with “+ (a pIC50 of from about 4.5 to 6)”.
Consider `CCN(Cc1ccccc1)S(=O)(=O)c1ccc(O)c2ncccc12` [Example 56, N-benzyl-N-ethyl-8-hydroxy-quinoline-5-sulfonamide], for which the “Activity range (pIC50, COMT inhibition)” value is reported as “+++ (a pIC50 of above about 7)”.
Take `O=S(=O)(c1ccc(O)c2ncccc12)N1CC(Oc2ccc(OC(F)(F)F)cc2)C1` [Example 99, 5-[3-[4-(trifluoromethoxy)phenoxy]azetidin-1-yl]sulfonylquinolin-8-ol]: the “Activity range (pIC50, COMT inhibition)” value is given as “++ (a pIC50 of from about great than 6 to 7)”.
